PMC9886975, “Ligand recognition mechanism of the human relaxin family peptide receptor 4 (RXFP4)” (Nature Communications, 2023)
pEC50: −log10 of the molar value. Where two headings read alike, the source gives them in different places.

Experiments:
parental CHO-K1 cells = assay: cAMP accumulation, parental CHO-K1 cells; type: cell-based, Chinese hamster; conditions: Supplementary Fig. 2e–g
RXFP4 E100A = biological target: T1, RXFP4 E100A (Homo sapiens, UniProt Q8TDU9, E100A); assay: cAMP accumulation, RXFP4 E100A; type: cell-based; conditions: HEK293T
T1 construct: RXFP4(1-374)-; expressed in transfected cells; host or cells: HEK293T, transient (pCMV6)
From the text: (§1) The full-length human RXFP4 (NCBI Reference Sequence: NM_181885.3) was cloned into a modified pFastBac vector (Invitrogen) with HA signal peptide to enhance receptor expression, followed by a 10× histidine tag and BRIL insertion at the N terminus. LgBiT subunit (Promega) was fused at the C terminus of RXFP4 connected by a 15-amino acid polypeptide linker. […] The engineered human Gαi2, Gβ1, bovine Gγ2, and scFv16 were cloned into the pFastBac vector (Invitrogen), respectively. For cAMP accumulation assay, human RXFP4 and RXFP3 (NCBI Reference Sequence: NM_016568.3) were cloned into pCMV6 constructs (OriGene Technologies). The mutant receptors were modified by site-directed mutagenesis in the setting of the WT constructs, with the primers designed by QuikChange Primer Design [QuickChange Primer Design (http://agilent.com.cn)] and carried out using Phanta Max Master (Vazyme). N-terminal Flag tag was added to both WT and mutant receptors for surface expression measurement. […]
(§2) CHO-K1 (ATCC, Cat#CCL-61) cells stably expressing human RXFP4 (hRXFP4-CHO) or RXFP3 (hRXFP3-CHO) were maintained in DMEM/F12 (Gibco) supplemented with 10% (v/v) fetal bovine serum (FBS) and 2 mM L-glutamine. […] Following 24 h culturing, the transfected cells were ready for detection.
(§3) Ligands were verified for their bioactivity in the beginning in hRXFP4-CHO, which were ready for use after 24 h culturing. […] The time-resolved fluorescence resonance energy transfer (TR-FRET) signals were detected by an EnVision multilabel plate reader (PerkinElmer) with the emission window ratio of 665 nm over 620 nm under 320 nm excitation. […]
(§4) Inhibition of forskolin-induced cAMP accumulation was performed in HEK293T cells transiently transfected with WT and mutant receptors. All the mutant constructs were modified by single-point mutation in the setting of the WT receptor. cAMP accumulation data were analyzed using a three-parameter logistic equation to determine pEC50 and Emax values. Emax values for mutants are defined as the window between the maximal response and vehicle control (no ligand) and expressed as a percentage of the WT. […]

RXFP4 T121A = biological target: T2, RXFP4 T121A (Homo sapiens, UniProt Q8TDU9, T121A); assay: cAMP accumulation, RXFP4 T121A; type: cell-based; conditions: HEK293T
T2 construct: RXFP4(1-374)-; expressed in transfected cells; host or cells: HEK293T, transient (pCMV6)
From the text: as §1, §2, §3, §4

RXFP4 R194A = biological target: T3, RXFP4 R194A (Homo sapiens, UniProt Q8TDU9, R194A); assay: cAMP accumulation, RXFP4 R194A; type: cell-based
T3 construct: RXFP4(1-374)-; expressed in transfected cells; host or cells: HEK293T, transient (pCMV6)
From the text: The full-length human RXFP4 (NCBI Reference Sequence: NM_181885.3) was cloned into a modified pFastBac vector (Invitrogen) with HA signal peptide to enhance receptor expression, followed by a 10× histidine tag and BRIL insertion at the N terminus. LgBiT subunit (Promega) was fused at the C terminus of RXFP4 connected by a 15-amino acid polypeptide linker. […] The engineered human Gαi2, Gβ1, bovine Gγ2, and scFv16 were cloned into the pFastBac vector (Invitrogen), respectively. For cAMP accumulation assay, human RXFP4 and RXFP3 (NCBI Reference Sequence: NM_016568.3) were cloned into pCMV6 constructs (OriGene Technologies). The mutant receptors were modified by site-directed mutagenesis in the setting of the WT constructs, with the primers designed by QuikChange Primer Design [QuickChange Primer Design (http://agilent.com.cn)] and carried out using Phanta Max Master (Vazyme). N-terminal Flag tag was added to both WT and mutant receptors for surface expression measurement. Sequences of all primers used in this study were provided in Supplementary Table 6, and all the constructs were confirmed by DNA sequencing.
CHO-K1 (ATCC, Cat#CCL-61) cells stably expressing human RXFP4 (hRXFP4-CHO) or RXFP3 (hRXFP3-CHO) were maintained in DMEM/F12 (Gibco) supplemented with 10% (v/v) fetal bovine serum (FBS) and 2 mM L-glutamine. Human embryonic kidney 293 T cells containing SV40 large T-antigen (HEK293T, ATCC, Cat#64127316) were maintained in DMEM (Gibco) supplemented with 10% (v/v) FBS, 1 mM sodium pyruvate (Gibco), 100 units/mL penicillin and 100 μg/mL streptomycin at 37 °C in 5% CO2. For cAMP assays in mutants, HEK293T cells were seeded onto 6-well cell culture plates at a density of 7 × 10^5 cells per well. After overnight incubation, cells were transfected with WT or mutant receptors using Lipofectamine 3000 transfection reagent (Invitrogen). Following 24 h culturing, the transfected cells were ready for detection.
Ligands were verified for their bioactivity in the beginning in hRXFP4-CHO, which were ready for use after 24 h culturing. For assaying mutants, HEK293T cells were used 24 h post transfection. Cells were digested with 0.02% (w/v) EDTA and seeded onto 384-well microtiter plates at a density of 8 × 10^5 cells/mL in cAMP stimulation buffer [HBSS supplemented with 5 mM HEPES, 0.1% (w/v) bovine serum albumin (BSA) and 0.5 mM 3-isobutyl-1-methylxanthine]. The cells were stimulated with different concentrations of ligands plus 1.5 μM forskolin in RXFP4 and 4 μM forskolin in RXFP3. […] The time-resolved fluorescence resonance energy transfer (TR-FRET) signals were detected by an EnVision multilabel plate reader (PerkinElmer) with the emission window ratio of 665 nm over 620 nm under 320 nm excitation. […]
as §4, with “WT. Cell surface expression was assessed by flow cytometry to detect the N-terminal Flag epitope label on the receptors and normalized to the WT receptor (shown as percentage).” for “WT.”

RXFP4 R208A = biological target: T4, RXFP4 R208A (Homo sapiens, UniProt Q8TDU9, R208A); assay: cAMP accumulation, RXFP4 R208A; type: cell-based; conditions: HEK293T
T4 construct: RXFP4(1-374)-; expressed in transfected cells; host or cells: HEK293T, transient (pCMV6)
From the text: as §1, §2, §3, §4

RXFP4 Q205H = RXFP4 Q205H (Homo sapiens, UniProt Q8TDU9, Q205H); assay: cAMP accumulation, RXFP4 Q205H; type: cell-based; conditions: HEK293T
From the text: as §1, §2, §3, §4

RXFP4 Q205A = biological target: T5, RXFP4 Q205A (Homo sapiens, UniProt Q8TDU9, Q205A); assay: cAMP accumulation, RXFP4 Q205A; type: cell-based
T5 construct: RXFP4(1-374)-; expressed in transfected cells; host or cells: HEK293T, transient (pCMV6)
From the text: (§5) The full-length human RXFP4 (NCBI Reference Sequence: NM_181885.3) was cloned into a modified pFastBac vector (Invitrogen) with HA signal peptide to enhance receptor expression, followed by a 10× histidine tag and BRIL insertion at the N terminus. LgBiT subunit (Promega) was fused at the C terminus of RXFP4 connected by a 15-amino acid polypeptide linker. […] The engineered human Gαi2, Gβ1, bovine Gγ2, and scFv16 were cloned into the pFastBac vector (Invitrogen), respectively. For cAMP accumulation assay, human RXFP4 and RXFP3 (NCBI Reference Sequence: NM_016568.3) were cloned into pCMV6 constructs (OriGene Technologies). […]
as §2, §3

RXFP4 W279A = biological target: T6, RXFP4 W279A (Homo sapiens, UniProt Q8TDU9, W279A); assay: cAMP accumulation, RXFP4 W279A; type: cell-based
T6 construct: RXFP4(1-374)-; expressed in transfected cells; host or cells: HEK293T, transient (pCMV6)
From the text: as §5, §2, §3

RXFP4 Y284A = biological target: T7, RXFP4 Y284A (Homo sapiens, UniProt Q8TDU9, Y284A); assay: cAMP accumulation, RXFP4 Y284A; type: cell-based
T7 construct: RXFP4(1-374)-; expressed in transfected cells; host or cells: HEK293T, transient (pCMV6)
From the text: as §5, §2, §3

RXFP4 L118A+V122A = biological target: T8, RXFP4 L118A+V122A (Homo sapiens, UniProt Q8TDU9, L118A/V122A); assay: cAMP accumulation, RXFP4 L118A+V122A; type: cell-based; conditions: HEK293T
T8 construct: RXFP4(1-374)-; expressed in transfected cells; host or cells: HEK293T, transient (pCMV6)
From the text: as §5, §2, §3

RXFP4 L118A = biological target: T9, RXFP4 L118A (Homo sapiens, UniProt Q8TDU9, L118A); assay: cAMP accumulation, RXFP4 L118A; type: cell-based; conditions: HEK293T
T9 construct: RXFP4(1-374)-; expressed in transfected cells; host or cells: HEK293T, transient (pCMV6)
From the text: as §5, §2, §3

RXFP4 V122A = biological target: T10, RXFP4 V122A (Homo sapiens, UniProt Q8TDU9, V122A); assay: cAMP accumulation, RXFP4 V122A; type: cell-based; conditions: HEK293T, mean ± S.E.M.
T10 construct: RXFP4(1-374)-; expressed in transfected cells; host or cells: HEK293T, transient (pCMV6)
From the text: as §5, §2, §3

RXFP3 WT = biological target: T11, RXFP3 WT (Homo sapiens, UniProt Q9NSD7); assay: cAMP accumulation, WT RXFP3 (HEK293T); type: cell-based; conditions: WT and all the five RXFP3 mutants
T11 construct: RXFP3(1-469)-; expressed in transfected cells; host or cells: HEK293T, transient (pCMV6)
From the text: as §5, §2, §3

RXFP4 Q205H, sequence (Q8TDU9 whole entry Q205H): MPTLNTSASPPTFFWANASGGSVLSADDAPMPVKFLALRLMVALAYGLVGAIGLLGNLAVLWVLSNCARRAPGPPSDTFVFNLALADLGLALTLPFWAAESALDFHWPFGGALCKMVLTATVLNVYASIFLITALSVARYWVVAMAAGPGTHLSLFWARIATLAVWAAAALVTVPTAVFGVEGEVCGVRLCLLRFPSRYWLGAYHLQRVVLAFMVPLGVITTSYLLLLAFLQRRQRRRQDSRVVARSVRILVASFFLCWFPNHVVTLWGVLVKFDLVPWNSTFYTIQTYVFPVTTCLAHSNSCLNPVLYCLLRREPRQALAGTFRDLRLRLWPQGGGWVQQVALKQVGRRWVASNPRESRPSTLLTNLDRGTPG
T4 sequence (Q8TDU9 whole entry R208A): as the sequence (Q8TDU9 whole entry Q205H) above, with H205Q, R208A counted along it
T1 sequence (Q8TDU9 whole entry E100A): as the sequence (Q8TDU9 whole entry Q205H) above, with E100A, H205Q counted along it
T2 sequence (Q8TDU9 whole entry T121A): as the sequence (Q8TDU9 whole entry Q205H) above, with T121A, H205Q counted along it
T3 sequence (Q8TDU9 whole entry R194A): as the sequence (Q8TDU9 whole entry Q205H) above, with R194A, H205Q counted along it
T5 sequence (Q8TDU9 whole entry Q205A): as the sequence (Q8TDU9 whole entry Q205H) above, with H205A counted along it
T6 sequence (Q8TDU9 whole entry W279A): as the sequence (Q8TDU9 whole entry Q205H) above, with H205Q, W279A counted along it
T10 sequence (Q8TDU9 whole entry V122A): as the sequence (Q8TDU9 whole entry Q205H) above, with V122A, H205Q counted along it
T7 sequence (Q8TDU9 whole entry Y284A): as the sequence (Q8TDU9 whole entry Q205H) above, with H205Q, Y284A counted along it
T11 sequence (Q9NSD7 whole entry): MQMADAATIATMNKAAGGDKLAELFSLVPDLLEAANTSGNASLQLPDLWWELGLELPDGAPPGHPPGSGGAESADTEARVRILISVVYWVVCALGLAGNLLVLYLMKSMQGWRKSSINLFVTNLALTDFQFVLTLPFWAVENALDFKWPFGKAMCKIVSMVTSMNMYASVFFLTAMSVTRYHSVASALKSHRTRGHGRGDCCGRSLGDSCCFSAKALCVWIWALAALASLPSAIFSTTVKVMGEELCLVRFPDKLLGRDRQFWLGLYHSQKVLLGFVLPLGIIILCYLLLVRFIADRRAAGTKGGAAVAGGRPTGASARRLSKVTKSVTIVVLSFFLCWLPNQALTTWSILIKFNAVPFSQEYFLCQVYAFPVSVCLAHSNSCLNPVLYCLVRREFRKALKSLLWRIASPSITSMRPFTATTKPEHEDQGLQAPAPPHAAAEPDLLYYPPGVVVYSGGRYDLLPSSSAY
T9 sequence (Q8TDU9 whole entry L118A): as the sequence (Q8TDU9 whole entry Q205H) above, with L118A, H205Q counted along it
T8 sequence (Q8TDU9 whole entry L118A/V122A): as the sequence (Q8TDU9 whole entry Q205H) above, with L118A, V122A, H205Q counted along it

CCOc1cc2c(cc1OC)CCN(C(=O)N1CCOCC1)[C@H]2CCc1c[nH]c2ccc(OC)cc12 [DC591053, (S)-(7-ethoxy-6-methoxy-1-(2-(5-methoxy-1H-indol-3-yl)ethyl)−3,4-dihydroisoquinolin-2(1H)-yl)(morpholino)methanone]
reaction with parental CHO-K1 cells (parental CHO-K1 cells): neither reacted with RXFP3 nor parental CHO-K1 cells | cAMP response (RXFP4 E100A): unchanged agonism | pEC50 (RXFP4 E100A; 1.5 μM forskolin, mean ± S.E.M., N.A., not active): 6.97 | Emax (RXFP4 E100A; mean ± S.E.M.): 79.27 ± 6.72 % WT | decrease of potency vs WT (RXFP4 T121A): 20.9 fold | pEC50 (RXFP4 T121A; 1.5 μM forskolin, mean ± S.E.M., n = 3 or 4, N.A., not active): 6.14 | Emax (RXFP4 T121A; mean ± S.E.M.): 31.53 ± 7.09 % WT | decrease of potency vs WT (RXFP4 R194A; HEK293T): 8.1 fold | EC50 (RXFP4 R194A; HEK293T, 1.5 μM forskolin, mean ± S.E.M., n = 3, read-out: pEC50 (converted)): 282 nM | Emax (RXFP4 R194A; HEK293T, mean ± S.E.M.): 81.10 ± 7.60 % WT | decrease of potency vs WT (RXFP4 R208A): 7.6 fold | pEC50 (RXFP4 R208A; 1.5 μM forskolin, mean ± S.E.M., n = 3, N.A., not active): 6.58 | Emax (RXFP4 R208A; mean ± S.E.M.): 52.09 ± 4.26 % WT | response (RXFP4 Q205H): more profound reduction for DC591053 than compound 4 | pEC50 (RXFP4 Q205H; 1.5 μM forskolin, mean ± S.E.M., n = 3): 6.17 | Emax (RXFP4 Q205H; mean ± S.E.M.): 25.10 ± 6.36 % WT

CC[C@H](C)[C@@H]1NC(=O)[C@H](Cc2ccc(O)cc2)NC(=O)[C@H]([C@@H](C)CC)NC(=O)[C@H](C(C)C)NC(=O)[C@H]([C@@H](C)O)NC(=O)[C@H](CCCNC(=N)N)NC(=O)[C@H]([C@@H](C)CC)NC(=O)[C@H](Cc2ccc(O)cc2)NC(=O)[C@H](CCC(=O)O)NC(=O)[C@H](CC(C)C)NC(=O)CNC(=O)[C@@H](NC(=O)[C@H](CC(C)C)NC(=O)[C@H](CCCNC(=N)N)NC(=O)[C@@H](NC(=O)[C@H](CO)NC(=O)[C@H](CCC(=O)O)NC(=O)[C@@H](N)CCCCN)C(C)C)CSSC[C@@H]2NC(=O)[C@@H](NC(=O)[C@H](CC(C)C)NC(=O)[C@@H](NC(=O)[C@H](CCC(N)=O)NC(=O)[C@H](CC(C)C)NC(=O)[C@H](CC(=O)O)NC(=O)[C@@H](N)CCC(N)=O)[C@@H](C)O)CSSC[C@H](NC(=O)CNC(=O)[C@H](CC(=O)O)NC(=O)[C@H]([C@@H](C)O)NC2=O)C(=O)N[C@@H](CO)C(=O)N[C@@H](CCSC)C(=O)N[C@@H]([C@@H](C)O)C(=O)N[C@@H](CC(=O)O)C(=O)N[C@@H](CC(C)C)C(=O)N[C@@H](CO)C(=O)N[C@@H](C)C(=O)N[C@@H](CC(C)C)C(=O)N[C@H](C(=O)O)CSSC[C@@H](C(=O)N[C@@H](C)C(=O)N[C@@H](CO)C(=O)N[C@@H](CO)C(=O)N[C@@H](CCCNC(=N)N)C(=O)N[C@@H](Cc2c[nH]c3ccccc23)C(=O)O)NC1=O [INSL5, insulin-like peptide 5]
pEC50 (RXFP4 R194A): 8.78 | Emax (RXFP4 R194A; HEK293T, mean ± S.E.M.): 79.76 ± 6.06 % WT | pEC50 (RXFP4 Q205A): 8.40 | Emax (RXFP4 Q205A; HEK293T, mean ± S.E.M.): 50.94 ± 6.54 % WT | pEC50 (RXFP4 W279A): 8.73 | Emax (RXFP4 W279A; HEK293T, mean ± S.E.M.): 43.30 ± 3.29 % WT | pEC50 (RXFP4 Y284A): 8.74 | Emax (RXFP4 Y284A; HEK293T, mean ± S.E.M.): 49.25 ± 4.06 % WT | response (RXFP4 L118A+V122A): inactive | response (RXFP4 L118A): inactive | pEC50 (RXFP4 V122A; 1.5 μM forskolin, n = 3): 8.44 | Emax (RXFP4 V122A): 33.20 ± 3.27 % WT | response (RXFP3 WT): inactive
